Reference: PubChem BioAssay (NCI)
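Test compounds were applied to cells in 96-well plates for 48 hours at 5 doses. At the GI50, growth is halved. At the TGI there is no net growth.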

Columns and labels:
Assay in all cases: NCI tumour cell line growth inhibition, 48 h
P388/ADR leukemia = tested on: P388/ADR leukemia
DMS 114 small cell lung = tested on: DMS 114 small cell lung
T-47D breast = tested on: T-47D breast
HOP-18 NSCLC = tested on: HOP-18 NSCLC
DLD-1 colon = tested on: DLD-1 colon
BT-549 breast = tested on: BT-549 breast
SN12K1 renal = tested on: SN12K1 renal
MCF7 breast = tested on: MCF7 breast
XF 498 CNS = tested on: XF 498 CNS
MDA-N = tested on: MDA-N
RXF-631 renal = tested on: RXF-631 renal

Row | SMILES | TGI (P388/ADR leukemia) [µM] | TGI (DMS 114 small cell lung) [µM] | GI50 (T-47D breast) [µM] | TGI (T-47D breast) [µM] | TGI (HOP-18 NSCLC) [µM] | TGI (DLD-1 colon) [µM] | GI50 (BT-549 breast) [µM] | TGI (BT-549 breast) [µM] | TGI (SN12K1 renal) [µM] | GI50 (MCF7 breast) [µM] | TGI (MCF7 breast) [µM] | TGI (XF 498 CNS) [µM] | GI50 (MDA-N) [µM] | TGI (MDA-N) [µM] | TGI (RXF-631 renal) [µM]
1 | CCCCS(=N)(=O)CC[C@H](N)C(=O)O (stereo partly specified) | > 5000 | > 5000 | > 10000 | > 10000 | > 5000 | > 5000 | > 10000 | > 10000 | 3750 | > 10000 | > 10000 | 604 | > 5000 | > 10000 | –
2 | CN(C)CCNC(=O)c1cc([N+](=O)[O-])cc2ccc(-c3ccccc3)nc12 | – | 28.6 | – | – | 26.3 | 39.5 | – | – | 15.2 | – | > 100 | 21.7 | – | – | –
3 | CC[C@@]1(OC(=O)CCC(=O)O)C(=O)OCc2c1cc1n(c2=O)Cc2cc3ccccc3nc2-1 | – | 1.08 | – | 2.62 | > 100 | > 100 | – | > 28.3 | – | – | – | 5.38 | – | 5.51 | 17.6
4 | CC(O)C(NC(=O)C(CS)NC(=O)C(CO)NC(=O)C(CCCCN)NC(=O)C(Cc1c[nH]c2ccccc12)NC(=O)C(Cc1ccc(O)cc1)NC(=O)C(CS)NC(=O)C(N)Cc1ccccc1)C(N)=O (stereo unspecified) | – | 87.9 | – | > 25 | 46.6 | 59.7 | – | – | – | – | > 25 | 53.8 | – | > 25 | 43.7
